From ChEMBL document CHEMBL5352408, “Discovery of dehydroandrographolide derivatives with C19 hindered ether as potent anti-ZIKV agents with inhibitory activities to MTase of ZIKV NS5” (Eur J Med Chem, 2022) come the findings set out here.

Active and inactive are the calls of the source. The rule behind the calls is not given here.

For data set [1], the system named is Zika virus. The experiment in a line: Antiviral activity against ZIKV infected in African green monkey vero cells assessed as reduction in plaque formation incubated for 5 days by crystal violet based assay. The format is functional, organism-based. Conditions: for EC50: 120 h.
Data set [2] can be described thus: Cytotoxicity against african green monkey Vero cells incubated for 96 hrs. Conditions: chlorocebus sabaeus. The format is toxicity, cell-based.
The nature of data set [3]: Cytotoxicity against human Huh-7 cells incubated for 96 hrs. It is filed as toxicity, cell-based.
A short description of data set [4]: Cytotoxicity against human A549 cells incubated for 96 hrs. It is filed as toxicity, cell-based.
Data set [5] concerns Zika virus. The experiment in a line: Antiviral activity against ZIKV infected in African green monkey vero cells incubated for 48 hrs by qRT-PCR analysis. The format is functional, organism-based.
Data set [6] has as its system Zika virus. Description: Antiviral activity against ZIKV infected in human Huh-7 cells incubated for 48 hrs by qRT-PCR analysis. It is filed as functional, organism-based. Conditions: Huh-7, 48 h.
Data set [7] deals with Zika virus. The experiment in a line: Antiviral activity against ZIKV infected in human A549 cells incubated for 48 hrs by qRT-PCR. It is filed as functional, organism-based. Conditions: A549, 48 h.
The subject of data set [8] is Zika virus. Description: Antiviral activity against ZIKV infected in African green monkey Vero cells assessed as inhibition of ZIKV E protein at 0.4 uM incubated for 48 hrs by Western blot analysis relative to control. It is filed as functional. For orientation: A western blot detects proteins with antibodies after separation by electrophoresis.
For data set [9], the system named is Zika virus. Description: Antiviral activity against ZIKV infected in African green monkey Vero cells incubated for 48 hrs by Western blot analysis relative to control. The format is functional, organism-based.
The target of data set [10] is NS5 (Zika virus) (UniProt A0A143MHK7). The experiment in a line: Inhibition of ZIKV RdRP.
The target of data set [11] is Nonstructural protein 3 (Zika virus) (UniProt A0A024AXB9). The experiment in a line: Inhibition of ZIK virus NS2B-NS3 protease.
Data set [12] relates to Zika virus. Description: Antiviral activity against ZIKV infected in Vero cells assessed as virucidal effect at 10 uM pre-treated with virus for 2 hrs followed by infected with Vero cells for 2 hrs after washout transferred to normal medium measured after 48 hrs of post infection by qRT-PCR analysis based time of drug addition assay. It is filed as functional, organism-based. Conditions: time 4.0 hrs.

For data set [13], the system named is Zika virus. Description: Antiviral activity against ZIKV infected in Vero cells assessed as inhibition of viral entry at 10 uM Co-treated with virus with Vero cells followed by transferred into fresh medium measured upto 48 hrs by qRT-PCR analysis based time of drug addition assay. It is filed as functional, organism-based. Particulars: time 4.0 hrs. (In general: Real-time PCR tracks product formation cycle by cycle.)

Data set [14] has as its system Zika virus. Description: Antiviral activity against ZIKV infected in Vero cells assessed as viral infection at 10 uM pre-treated with Vero cells for 2 hrs followed by infected with virus cells for 2 hrs and measured upto 48 hrs in fresh medium by qRT-PCR analysis based time of drug addition assay. The format is functional, organism-based. Particulars: time 4.0 hrs.

Data set [15] relates to Zika virus. The experiment in a line: Antiviral activity against ZIKV infected in Vero cells assessed as viral RNA reduction at 10 uM treated immediately post infection incubated for 48 hrs by qRT-PCR analysis based time of drug addition assay. It is filed as functional, organism-based.
Data set [16] relates to Zika virus. The experiment in a line: Antiviral activity against ZIKV infected in Vero cells assessed as late entry stage to late viral life cycle by measuring reduction in viral RNA reduction at 10 uM treated 1 to 2 hrs post infection incubated for 48 hrs by qRT-PCR analysis based time of drug addition assay. The format is functional, organism-based.
For data set [17], the system named is Zika virus. The experiment in a line: Antiviral activity against ZIKV infected in Vero cells assessed as late viral life cycle by measuring reduction in viral RNA reduction at 10 uM treated 3 to 6 hrs post infection incubated for 48 hrs by qRT-PCR analysis based time of drug addition assay. It is filed as functional, organism-based.
The subject of data set [18] is Zika virus. The experiment in a line: Antiviral activity against ZIKV infected in Vero cells assessed as late viral life cycle by measuring reduction in viral RNA reduction at 10 uM treated 8 hrs post infection incubated for 48 hrs by qRT-PCR analysis based time of drug addition assay. The format is functional, organism-based.
The test system of data set [19] is Zika virus. Description: Antiviral activity against ZIKV infected in Vero cells assessed as late RNA synthesis to late viral life cycle by measuring reduction in viral RNA reduction at 10 uM treated 10 hrs post infection incubated for 48 hrs by qRT-PCR analysis based time of drug addition assay relative to 8 hrs post-infection. The format is functional, organism-based.

Data set [20] has as its system Zika virus. The experiment in a line: Antiviral activity against ZIKV infected in Vero cells assessed as late viral life cycle by measuring reduction in viral RNA reduction at 10 uM treated 12 hrs post infection incubated for 48 hrs by qRT-PCR analysis based time of drug addition assay. The format is functional, organism-based.
Data set [21] has as its target Genome polyprotein (Zika virus, UniProt Q32ZE1). The experiment in a line: Inhibition of ZIKV NS5 MTase activity assessed as methyltransferase reaction using capped RNA substrate pre-incubated for 2.5 hrs followed by enzyme addition measured after 1 hrs by luminometer.
Data set [22] concerns Zika virus. Description: Antiviral activity against ZIKV infected in African green monkey Vero cells assessed as inhibition of ZIKV E protein at 10 uM incubated for 48 hrs by Western blot analysis relative to control. It is filed as functional.

In general, EC50 refers to the concentration giving half of the maximal effect. For orientation: CC50 means the concentration that lowers cell viability or growth by half. As usually defined, the inhibition is the drop in the measured response relative to a control, in per cent. As usually defined, the IC50 is the concentration that gives 50% inhibition.

Genome polyprotein, sequence (Q32ZE1 2517-3419 limits assumed): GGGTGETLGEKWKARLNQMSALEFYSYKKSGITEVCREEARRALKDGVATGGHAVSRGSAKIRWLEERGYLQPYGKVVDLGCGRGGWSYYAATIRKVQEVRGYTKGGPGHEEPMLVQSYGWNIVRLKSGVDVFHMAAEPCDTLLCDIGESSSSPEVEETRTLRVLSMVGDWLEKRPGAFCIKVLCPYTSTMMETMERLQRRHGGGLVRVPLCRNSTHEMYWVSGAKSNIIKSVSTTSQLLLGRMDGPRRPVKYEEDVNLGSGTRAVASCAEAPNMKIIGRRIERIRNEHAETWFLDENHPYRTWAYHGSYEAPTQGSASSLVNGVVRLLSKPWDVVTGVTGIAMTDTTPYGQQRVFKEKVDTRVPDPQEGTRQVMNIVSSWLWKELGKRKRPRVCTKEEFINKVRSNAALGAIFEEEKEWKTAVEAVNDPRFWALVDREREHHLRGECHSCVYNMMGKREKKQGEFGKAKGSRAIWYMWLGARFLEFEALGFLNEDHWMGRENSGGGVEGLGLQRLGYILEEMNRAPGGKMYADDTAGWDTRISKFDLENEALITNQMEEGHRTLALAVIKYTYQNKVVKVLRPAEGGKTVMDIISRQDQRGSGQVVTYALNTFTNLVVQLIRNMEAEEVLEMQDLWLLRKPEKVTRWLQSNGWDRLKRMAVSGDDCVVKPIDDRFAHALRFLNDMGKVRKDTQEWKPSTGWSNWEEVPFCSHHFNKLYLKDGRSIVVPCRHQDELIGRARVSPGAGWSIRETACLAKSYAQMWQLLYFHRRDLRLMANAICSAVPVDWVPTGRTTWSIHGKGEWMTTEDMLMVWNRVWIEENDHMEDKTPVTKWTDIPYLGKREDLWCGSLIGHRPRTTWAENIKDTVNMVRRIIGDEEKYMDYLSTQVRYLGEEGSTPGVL
Nonstructural protein 3 (Zika virus), sequence (A0A024AXB9 as listed by the source): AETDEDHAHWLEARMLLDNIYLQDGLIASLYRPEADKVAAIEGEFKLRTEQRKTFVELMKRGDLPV
NS5 (Zika virus), sequence (A0A143MHK7 as listed by the source): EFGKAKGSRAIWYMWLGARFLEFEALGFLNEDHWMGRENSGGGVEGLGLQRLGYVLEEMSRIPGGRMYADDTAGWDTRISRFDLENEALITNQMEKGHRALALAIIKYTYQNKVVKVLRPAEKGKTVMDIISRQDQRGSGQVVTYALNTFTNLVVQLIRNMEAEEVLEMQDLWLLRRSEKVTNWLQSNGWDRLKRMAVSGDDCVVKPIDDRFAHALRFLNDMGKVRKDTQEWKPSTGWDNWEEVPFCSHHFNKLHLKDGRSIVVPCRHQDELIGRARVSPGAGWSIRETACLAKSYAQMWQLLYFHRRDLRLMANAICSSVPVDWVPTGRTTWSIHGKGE

As to `C=C1CC[C@@H]2[C@](C)(CO)[C@H](O)CC[C@@]2(C)[C@@H]1/C=C/C1=CCOC1=O`, in data set [1], the concentration giving a half-maximal response (EC50) came out at 30.6 µM. In data set [2], this molecule displayed a cytotoxic concentration (CC50) at 96 h greater than 200 µM.

Consider `C=C1CC[C@H]2[C@@](C)(CCC(=O)[C@@]2(C)COC(c2ccccc2)(c2ccccc2)c2ccccc2)[C@@H]1/C=C/C1=CCOC1=O`, for which, in [1] (time 5.0 day), the outcome was inactive.

For the molecule `C=C1CC[C@H]2[C@@](C)(CC/C(=N\O)[C@@]2(C)COC(c2ccccc2)(c2ccccc2)c2ccccc2)[C@@H]1/C=C/C1=CCOC1=O`, the half-maximal effective concentration (EC50) in [1] was found to be 0.76 µM; in data set [5], 0.48 µM; in [6] it was 0.37 µM; in [7] it was 0.45 µM; in [9] it was 0.38 µM. The CC50 at 96 h in data set [2], in [3] and in data set [4] was greater than 200 µM each time. The inhibition at 0.4 µM in data set [8] amounted to 100%. Besides, the inhibition entry in data set [10] and in [11] was “inactive” each time. For the same molecule, the outcome in data set [12], in data set [13], in [14], in data set [19] and in data set [20] was inactive. The result in data set [15], in data set [16], in data set [17] and in [18] was Active. The concentration for half-maximal inhibition (IC50) in [21] stood at 18.3 µM.

For `C=C1CC[C@H]2[C@@](C)(CC/C(=N\O)[C@@]2(C)COC(c2ccccc2)c2ccccc2)[C@@H]1/C=C/C1=CCOC1=O`, the half-maximal effective concentration (EC50) in data set [1] stood at 3.49 µM. Besides, the IC50 in data set [21] stood at 183 µM.

`C=C1CC[C@@H]2[C@](C)(COC(c3ccccc3)(c3ccccc3)c3ccccc3)[C@H](O)CC[C@@]2(C)[C@@H]1/C=C/C1=CCOC1=O`: in data set [1], the EC50 turned out to be 6.17 µM. Also, the half-maximal cytotoxic concentration (CC50) at 96 h in data set [2] is greater than 200 µM. Besides, the IC50 in data set [21] turned out to be 38.9 µM.

On to `C=C1CC[C@@H]2[C@](C)(CO)[C@H](O)CC[C@@]2(C)[C@@H]1C/C=C1/C(=O)OC[C@H]1O` [ANDROGRAPHOLIDE], for which, in [1], the concentration for a half-maximal effect (EC50) amounted to 39.3 µM. The CC50 at 96 h in data set [2] was greater than 200 µM.

Consider `Nc1ncnc2c1ncn2[C@@H]1O[C@H](C[C@@H](N)CC[C@H](N)C(=O)O)[C@@H](O)[C@H]1O` [SINEFUNGIN], for which the IC50 in [21] was determined as 19.2 µM.

For the molecule `NC(=O)c1ncn([C@@H]2O[C@H](CO)[C@@H](O)[C@H]2O)n1` [RIBAVIRIN], in data set [22], the inhibition at 10 µM came to 50%.

In the case of `C=C1CC[C@H]2[C@@](C)(CC/C(=N\O)[C@@]2(C)CO[Si](c2ccccc2)(c2ccccc2)C(C)(C)C)[C@@H]1/C=C/C1=CCOC1=O`, in data set [1], the EC50 came to 0.71 µM. The molecule also registered a 50% cytotoxic concentration (CC50) at 96 h in [2] greater than 200 µM. For the same molecule, in data set [21], the IC50 is 14.1 µM.
